US11413321B2, “Pharmaceutical composition for use in increasing hair, modifying scalp or skin, healing a wound, promoting osteogenesis, or modifying hair” (priority 2017, dated 2022)

What was measured:
Format in all cases: in vivo, Wistar rat
CD68-positive cells = experiment: Immunohistological staining of rat dorsal skin after injection of fatty acids (CD68); details: 1 mg fatty acid in 20 μL per location
Protocol: Next, representative fatty acids contained in milk were administered to a 12-week-old Wistar rat at a plurality of locations on the dorsal skin as in Example 1(2) above, and a change in tissues by the administration was observed after the tissues were subjected to immunohistological staining. More specifically, physiological saline was administered in an amount of 20 μL per location, an administration liquid containing 1 mg of a fatty acid was administered in an amount of 20 μL per location, and a change in CD68-positive macrophage stained images and PPAR-γ-positive cell images by the administration was observed. Samples of the Wistar rat were obtained by sampling administration sites (four weeks after administration and eight weeks after administration). FIGS. 10A to 10G show the results. […] At saturated fatty acid injection sites, infiltration of a large number of CD68-positive cells was observed, and fibrillization of normal tissues was observed. Therefore, in FIGS. 10B to 10D, a change in fat tissues was examined at a location which was closest to the administration site and where normal tissues were maintained (non-fibrillization location).

Cxcl12 = experiment: Quantitative PCR of dorsal tissues after subcutaneous administration (Cxcl12); details: 20 μL per location into rat dorsal part; vs control without administration; FIG. 15
Protocol: (§1) 2.) C—X—C motif chemokine ligand 12 (Cxcl12), transcript variant 1, Rattus norvegicus: mRNA 1,880 bp NM 022177.3 GI: 7649650 Next, a change in gene expression in tissues was examined. Three regions were set between the head and the tail of the dorsal part of a 12-week-old Wistar rat (male), and each region was divided between the left and the right of the backbone into two regions to set a total of six regions on the dorsal part. Milk or palmitic acid was injected in an amount of 20 μL per location at two locations in the vicinity of the center of each region. The distance between the two locations was 1 cm. The collected tissue fragments were frozen with liquid nitrogen, and stored at −80° C. […] Analysis of gene expression by quantitative PCR was performed in the following manner: Integrated DNA technologies, Inc (Skokie, Ill., USA) was requested to design and synthesize gene-specific primers and probes, and using PrimeTime Gene Expression Master Mix Reagent (Integrated DNA Technologies, Inc, Skokie, Ill., USA) and Rotor-Gene Q PCR Apparatus (QIAGEN GmbH, Hilden, Germany), PCR analysis was performed twice per gene per specimen to analyze the expression level of a target gene. […]

Cxcr4 = experiment: Quantitative PCR of dorsal tissues after subcutaneous administration (Cxcr4); details: 20 μL per location into rat dorsal part; vs control without administration; FIG. 15
Protocol: as §1, with “3.)” for “2.)”, “receptor 4 (Cxcr4),” for “ligand 12 (Cxcl12), transcript variant 1,”, “1,726” for “1,880”, “022205.3” for “022177.3”, “82617587” for “7649650”

Compound: CCCCCCCCCCCCCCCC(=O)O [palmitic acid]
- number of CD68-positive cells at the administration site (CD68-positive cells; eight weeks after administration): maintained
- number of CD68-positive cells at the administration site (CD68-positive cells; four weeks after administration, vs physiological saline): increased
- expression level of Cxcl12 in tissues (Cxcl12): greatly increased
- expression level of Cxcr4 in tissues (Cxcr4): greatly increased
